Experimental data from ChEMBL document CHEMBL5537181 (J Med Chem, 2024).
Activity calls are given as the source filed them.

Columns and labels:
[1] = target: T1, Potassium/sodium hyperpolarization-activated cyclic nucleotide-gated channel 2 (Homo sapiens) (UniProt Q9UL51); assay: Inhibition of HCN2 (unknown origin) at 1 uM
T1 sequence (whole entry): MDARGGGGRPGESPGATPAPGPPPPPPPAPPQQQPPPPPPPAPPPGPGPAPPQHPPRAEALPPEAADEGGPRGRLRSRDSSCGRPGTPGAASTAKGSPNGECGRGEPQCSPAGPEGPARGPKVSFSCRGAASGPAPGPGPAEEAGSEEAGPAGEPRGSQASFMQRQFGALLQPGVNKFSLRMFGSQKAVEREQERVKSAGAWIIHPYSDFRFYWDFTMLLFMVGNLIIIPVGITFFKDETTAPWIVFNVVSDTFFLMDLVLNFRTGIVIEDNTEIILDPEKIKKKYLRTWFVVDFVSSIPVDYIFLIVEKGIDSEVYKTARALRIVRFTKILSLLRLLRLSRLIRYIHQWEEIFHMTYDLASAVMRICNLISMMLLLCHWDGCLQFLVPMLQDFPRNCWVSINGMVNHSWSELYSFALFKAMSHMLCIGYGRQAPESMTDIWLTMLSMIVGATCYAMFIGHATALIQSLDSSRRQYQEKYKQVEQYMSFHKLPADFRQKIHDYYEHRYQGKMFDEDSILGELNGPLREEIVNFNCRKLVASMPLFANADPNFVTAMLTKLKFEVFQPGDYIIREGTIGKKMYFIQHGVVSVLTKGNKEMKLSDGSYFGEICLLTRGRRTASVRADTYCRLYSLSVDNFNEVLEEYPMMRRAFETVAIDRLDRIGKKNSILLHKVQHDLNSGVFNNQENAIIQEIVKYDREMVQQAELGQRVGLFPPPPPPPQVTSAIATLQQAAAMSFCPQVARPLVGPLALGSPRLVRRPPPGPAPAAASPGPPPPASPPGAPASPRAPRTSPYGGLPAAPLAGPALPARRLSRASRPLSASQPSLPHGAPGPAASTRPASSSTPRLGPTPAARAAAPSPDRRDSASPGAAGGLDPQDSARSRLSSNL

[2] = target: T2, Voltage-dependent N-type calcium channel subunit alpha-1B (Homo sapiens, UniProt Q00975); assay: Inhibition of human Cav2.2 channel transfected in HEK293T cells assessed as inhibition of Cav2.2-mediated Ba2+ current at 1 uM measured for 3 to 5 days by whole-cell patch clamp assay relative to control; type: cell-based; details: time 3-5 day
[3] = Toxicity in rat assessed as motor impairment at 250 microg/kg,IM administrated for 14 consecutive days by rotarod test; details: in vivo, 0.25 mg/kg, dose 250 µg/kg
[4] = target: T2, Voltage-dependent N-type calcium channel subunit alpha-1B; assay: Inhibition of human Cav2.2 channel transfected in HEK293T cells co-expressed with human GABAB receptor assessed as inhibition of Cav2.2-mediated Ba2+ current at 100 nM in presence of CGP 55845 measured for 3 to 5 days by whole-cell patch clamp assay; type: cell-based; details: time 3-5 day
[5] = target: T3, Neuronal acetylcholine receptor; alpha3/beta2 (Homo sapiens) (UniProt P17787+P32297); assay: Antagonist activity at human alpha3beta2 nAChR expressed in acetylcholine-induced Xenopus laevis oocytes assessed as inhibition of acetylcholine-induced current at 30 nM by two electrode voltage-clamp assay; type: cell-based; details: Oocyte
[6] = target: T3, Neuronal acetylcholine receptor; alpha3/beta2 (Homo sapiens); assay: Antagonist activity at human alpha3beta2 nAChR expressed in acetylcholine-induced Xenopus laevis oocytes assessed as inhibition of acetylcholine-induced current at 100 nM by two electrode voltage-clamp assay relative to control; type: cell-based; details: Oocyte
[7] = target: T4, Acid-sensing ion channel 3 (Homo sapiens) (UniProt Q9UHC3); assay: Inhibition of ASIC3 (unknown origin) at 1 uM
T4 sequence (whole entry): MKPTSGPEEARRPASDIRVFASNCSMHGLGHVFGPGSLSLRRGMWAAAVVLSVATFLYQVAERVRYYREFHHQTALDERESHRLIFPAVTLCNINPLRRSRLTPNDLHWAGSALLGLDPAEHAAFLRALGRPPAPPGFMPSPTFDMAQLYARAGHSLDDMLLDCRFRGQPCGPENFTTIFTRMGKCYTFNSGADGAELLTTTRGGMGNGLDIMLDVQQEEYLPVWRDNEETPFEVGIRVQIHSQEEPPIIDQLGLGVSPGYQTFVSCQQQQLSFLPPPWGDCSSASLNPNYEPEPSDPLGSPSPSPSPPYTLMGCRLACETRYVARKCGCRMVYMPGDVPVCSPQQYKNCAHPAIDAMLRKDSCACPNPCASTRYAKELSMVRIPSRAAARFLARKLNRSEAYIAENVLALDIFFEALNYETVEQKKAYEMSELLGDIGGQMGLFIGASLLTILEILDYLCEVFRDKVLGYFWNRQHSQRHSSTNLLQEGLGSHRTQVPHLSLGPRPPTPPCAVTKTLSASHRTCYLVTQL

[8] = target: Neuronal acetylcholine receptor subunit alpha-7 (Rattus norvegicus) (UniProt Q05941); assay: Antagonist activity at rat alpha7 nAChR expressed in acetylcholine-induced Xenopus laevis oocytes assessed as inhibition of acetylcholine-induced current at 100 nM by two electrode voltage-clamp assay relative to control; type: cell-based; details: Oocyte
[9] = target: T2, Voltage-dependent N-type calcium channel subunit alpha-1B; assay: Inhibition of human Cav2.2 channel transfected in HEK293T cells co-expressed with human GABAB receptor assessed as inhibition of Cav2.2-mediated Ba2+ current at 100 nM measured for 3 to 5 days by whole-cell patch clamp assay; type: cell-based; details: time 3-5 day
[10] = target: T5, Neuronal acetylcholine receptor subunit alpha-7 (Homo sapiens, UniProt P36544); assay: Antagonist activity at human alpha7 nAChR expressed in acetylcholine-induced Xenopus laevis oocytes assessed as inhibition of acetylcholine-induced current by two electrode voltage-clamp assay; type: cell-based, Oocyte
[11] = tested on: Rattus norvegicus; assay: Analgesic activity in Chronic constriction injury rat model assessed as increase in paw withdrawal threshold at 250 microg/kg,IM administration and measured for 0.5 to 48 hrs; type: functional, organism-based; details: dose 250.0 µg/kg, time 0.5-48 hrs
[12] = tested on: Rattus norvegicus; assay: Analgesic activity in Chronic constriction injury rat model assessed as decrease in hyperalgesia at 0.25 to 25 microg/kg,IM administrated every 2 hrs for 14 days; type: functional, organism-based; details: dose 0.25-25 µg/kg, time 14.0 day
[13] = target: Neuronal acetylcholine receptor; alpha3/beta2 (Rattus norvegicus) (UniProt P04757+P12390); assay: Antagonist activity at rat alpha3beta2 nAChR expressed in acetylcholine-induced Xenopus laevis oocytes assessed as inhibition of acetylcholine-induced current at 100 nM by two electrode voltage-clamp assay; type: cell-based; details: Oocyte
[14] = target: Neuronal acetylcholine receptor; alpha9/alpha10 (Homo sapiens) (UniProt Q9UGM1+Q9GZZ6); assay: Antagonist activity at human alpha9alpha10 nAChR expressed in acetylcholine-induced Xenopus laevis oocytes assessed as inhibition of acetylcholine-induced current at 30 nM at -120 mV holding potential by two electrode voltage-clamp assay; type: cell-based; details: Oocyte, filed as antagonist
[15] = tested on: Rattus norvegicus; assay: Analgesic activity in Chronic constriction injury rat model assessed as decrease in hyperalgesia at 250 microg/kg,IM administration and measured for 0.5 to 48 hrs; type: functional, organism-based; details: dose 250.0 µg/kg, time 0.5-48 hrs
[16] = Toxicity in rat assessed as change in behavior at 250 microg/kg,IM administrated for 14 consecutive days by conditioned place preference assay; details: in vivo, 0.25 mg/kg, dose 250 µg/kg
[17] = target: T5, Neuronal acetylcholine receptor subunit alpha-7; assay: Antagonist activity at human alpha7 nAChR expressed in acetylcholine-induced Xenopus laevis oocytes assessed as inhibition of acetylcholine-induced current at 100 nM by two electrode voltage-clamp assay; type: cell-based; details: Oocyte, filed as antagonist

T2 sequence (Q00975 whole entry, looked up): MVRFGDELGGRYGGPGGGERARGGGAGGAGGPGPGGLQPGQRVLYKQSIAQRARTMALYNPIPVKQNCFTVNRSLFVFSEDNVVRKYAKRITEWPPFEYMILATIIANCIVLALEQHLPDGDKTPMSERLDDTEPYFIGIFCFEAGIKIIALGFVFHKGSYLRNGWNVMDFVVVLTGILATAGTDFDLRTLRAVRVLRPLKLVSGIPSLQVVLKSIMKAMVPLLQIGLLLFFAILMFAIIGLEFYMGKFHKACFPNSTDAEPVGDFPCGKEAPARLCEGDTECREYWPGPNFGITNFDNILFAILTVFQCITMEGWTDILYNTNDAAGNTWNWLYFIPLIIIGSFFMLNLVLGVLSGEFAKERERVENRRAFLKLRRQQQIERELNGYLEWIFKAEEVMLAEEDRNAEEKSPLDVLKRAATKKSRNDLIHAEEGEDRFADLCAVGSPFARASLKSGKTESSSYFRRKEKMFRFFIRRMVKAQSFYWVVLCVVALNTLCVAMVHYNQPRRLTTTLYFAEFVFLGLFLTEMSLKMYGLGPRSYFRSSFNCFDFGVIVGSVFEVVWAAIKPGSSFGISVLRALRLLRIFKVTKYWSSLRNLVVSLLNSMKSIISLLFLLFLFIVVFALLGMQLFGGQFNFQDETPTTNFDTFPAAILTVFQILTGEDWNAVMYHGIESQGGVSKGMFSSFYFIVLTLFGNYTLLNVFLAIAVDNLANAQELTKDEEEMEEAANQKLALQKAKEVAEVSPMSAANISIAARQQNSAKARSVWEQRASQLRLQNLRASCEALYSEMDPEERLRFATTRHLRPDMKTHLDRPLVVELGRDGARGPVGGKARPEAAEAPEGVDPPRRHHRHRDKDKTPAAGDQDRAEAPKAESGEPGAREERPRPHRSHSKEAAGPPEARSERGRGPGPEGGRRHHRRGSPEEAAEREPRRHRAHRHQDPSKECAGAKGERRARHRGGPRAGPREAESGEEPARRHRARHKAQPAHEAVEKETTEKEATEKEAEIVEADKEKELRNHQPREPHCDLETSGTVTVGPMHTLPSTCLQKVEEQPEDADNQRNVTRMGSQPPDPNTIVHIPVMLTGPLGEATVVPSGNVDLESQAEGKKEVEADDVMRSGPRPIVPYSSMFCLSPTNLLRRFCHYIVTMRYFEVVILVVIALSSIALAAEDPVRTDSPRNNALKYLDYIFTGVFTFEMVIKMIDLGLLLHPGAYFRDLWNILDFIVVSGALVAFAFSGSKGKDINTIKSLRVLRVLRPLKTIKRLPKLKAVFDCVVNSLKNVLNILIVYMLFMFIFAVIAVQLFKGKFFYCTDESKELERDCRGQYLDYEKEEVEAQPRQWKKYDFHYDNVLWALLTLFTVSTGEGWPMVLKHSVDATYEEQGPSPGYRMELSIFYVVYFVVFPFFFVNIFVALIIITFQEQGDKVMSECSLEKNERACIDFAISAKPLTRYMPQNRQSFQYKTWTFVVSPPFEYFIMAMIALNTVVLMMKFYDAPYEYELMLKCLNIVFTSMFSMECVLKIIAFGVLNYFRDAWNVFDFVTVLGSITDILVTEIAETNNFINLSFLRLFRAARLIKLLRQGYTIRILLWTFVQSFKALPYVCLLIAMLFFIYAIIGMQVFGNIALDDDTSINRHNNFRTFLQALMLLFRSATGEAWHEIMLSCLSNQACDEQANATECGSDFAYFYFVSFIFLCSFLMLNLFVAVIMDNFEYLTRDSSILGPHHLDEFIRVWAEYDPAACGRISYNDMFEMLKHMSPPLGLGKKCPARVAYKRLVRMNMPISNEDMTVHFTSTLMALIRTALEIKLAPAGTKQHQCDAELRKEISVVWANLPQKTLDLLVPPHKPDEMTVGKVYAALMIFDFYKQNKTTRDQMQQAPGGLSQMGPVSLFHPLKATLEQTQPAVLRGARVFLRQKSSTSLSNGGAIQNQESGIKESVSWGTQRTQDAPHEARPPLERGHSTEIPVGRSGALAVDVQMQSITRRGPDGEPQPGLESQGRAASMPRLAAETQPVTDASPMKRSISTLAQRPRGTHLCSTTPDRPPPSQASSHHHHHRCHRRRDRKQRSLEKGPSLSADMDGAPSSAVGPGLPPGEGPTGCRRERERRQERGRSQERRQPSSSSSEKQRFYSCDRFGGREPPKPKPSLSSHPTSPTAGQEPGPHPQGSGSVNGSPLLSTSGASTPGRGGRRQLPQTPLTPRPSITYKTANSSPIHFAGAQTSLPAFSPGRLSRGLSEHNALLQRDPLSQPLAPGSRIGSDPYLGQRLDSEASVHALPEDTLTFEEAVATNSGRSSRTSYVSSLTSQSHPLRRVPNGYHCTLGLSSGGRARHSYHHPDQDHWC
T5 sequence (P36544 whole entry): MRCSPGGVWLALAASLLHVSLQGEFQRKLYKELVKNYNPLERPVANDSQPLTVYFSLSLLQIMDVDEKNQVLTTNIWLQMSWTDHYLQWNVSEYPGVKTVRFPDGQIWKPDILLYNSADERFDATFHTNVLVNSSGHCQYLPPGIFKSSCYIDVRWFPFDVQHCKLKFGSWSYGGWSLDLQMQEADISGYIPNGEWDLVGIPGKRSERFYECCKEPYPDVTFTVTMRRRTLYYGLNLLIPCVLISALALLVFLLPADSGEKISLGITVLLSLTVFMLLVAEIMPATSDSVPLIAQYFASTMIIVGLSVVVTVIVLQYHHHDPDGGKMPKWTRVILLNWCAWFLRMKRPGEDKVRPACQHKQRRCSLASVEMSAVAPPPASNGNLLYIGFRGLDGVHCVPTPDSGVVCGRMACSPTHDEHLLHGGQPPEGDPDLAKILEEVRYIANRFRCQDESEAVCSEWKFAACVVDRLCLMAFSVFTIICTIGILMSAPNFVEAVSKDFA
Neuronal acetylcholine receptor subunit alpha-7 (Rattus norvegicus), sequence (Q05941 whole entry): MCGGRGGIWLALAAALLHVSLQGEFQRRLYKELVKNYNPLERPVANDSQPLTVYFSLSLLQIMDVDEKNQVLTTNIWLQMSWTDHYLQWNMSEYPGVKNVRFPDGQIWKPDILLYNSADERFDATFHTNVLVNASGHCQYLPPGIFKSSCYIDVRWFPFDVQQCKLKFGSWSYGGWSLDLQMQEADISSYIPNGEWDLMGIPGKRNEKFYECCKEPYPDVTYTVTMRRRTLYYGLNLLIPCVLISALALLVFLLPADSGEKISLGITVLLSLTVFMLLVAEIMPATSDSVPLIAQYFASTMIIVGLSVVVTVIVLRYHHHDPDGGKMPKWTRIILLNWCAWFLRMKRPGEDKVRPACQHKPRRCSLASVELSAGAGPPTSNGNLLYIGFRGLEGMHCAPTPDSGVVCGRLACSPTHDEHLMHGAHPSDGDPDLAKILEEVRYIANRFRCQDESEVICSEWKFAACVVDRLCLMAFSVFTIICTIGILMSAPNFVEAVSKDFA

SMILES: CC[C@H](C)[C@H](NC(=O)[C@H](CCCNC(=N)N)NC(=O)[C@H](CCCNC(=N)N)NC(=O)[C@H](Cc1ccc(O)cc1)NC(=O)[C@H](CCCNC(=N)N)NC(=O)[C@H](CCCNC(=N)N)NC(=O)[C@H](CCCNC(=N)N)NC(=O)[C@H](CCCNC(=N)N)NC(=O)[C@H](CC(=O)O)NC(=O)[C@H](Cc1ccc(O)cc1)NC(=O)[C@@H]1CCCN1C(=O)[C@H](CO)NC(=O)[C@H](CCCNC(=N)N)NC(=O)[C@H](Cc1ccc(O)cc1)NC(=O)[C@H](CCCNC(=N)N)NC(=O)CN)C(=O)N[C@H](C(=O)N[C@@H](CC(=O)O)C(N)=O)[C@@H](C)O
- inhibition [1]: inactive
- inhibition [2]: 53.6%
- Activity [3]: Non-Toxic
- inhibition [4]: inactive
- inhibition [5]: inactive
- inhibition [6]: 25%
- inhibition [7]: inactive
- inhibition [8]: 35%
- inhibition [9]: Active
- IC50 [10]: 43.8 nM
- Activity [11]: Active
- Activity [12]: Active
- inhibition [13]: inactive
- inhibition [14]: Active
- Activity [15]: Active
- Activity [16]: Non-Toxic
- inhibition [17]: 80%
